Data on one compound can be found in US9675068B2, “Solid form sodium lauryl sulfate (SLS) crawling pest elimination composition” (ECOLAB USA INC., priority 2008, dated 2017).

A short description of this series: Ability of SLS forms to go into solution in water. It counts as physicochemical. The note with it: at 12% and 18%. The source says: In one embodiment, the pesticide composition of the present invention includes a combination of sodium lauryl sulfate (SLS) and water. In particular, the pesticide composition includes a combination of a solid form of sodium lauryl sulfate and water. Suitable component concentrations for a concentrate of the pesticide composition include between about 90% and about 100% sodium lauryl sulfate by weight and balance water, particularly between about 93% and about 100% sodium lauryl sulfate by weight and balance water and more particularly between about 95% and about 100% sodium lauryl sulfate by weight and balance water. Suitable component concentrations for a use solution of the pesticide composition include between about 1% and about 10% sodium lauryl sulfate by weight and balance water and particularly between about 1% and about 6% sodium lauryl sulfate by weight and balance water. At concentrations higher than about 12% by weight sodium lauryl sulfate, solid form sodium lauryl sulfate may not effectively form a solution. In other embodiments, similar intermediate concentrate and use concentrations may also be present in the cleaning compositions of the invention.
The compositions of Examples 1, 2 and 3 are compositions of the present invention using needle form sodium lauryl sulfate (SLS) as the active ingredient in a pesticide composition. […]

Regarding `CCCCCCCCCCCCOS(=O)(=O)[O-].[Na+]` [needle form SLS, sodium lauryl sulfate], the “going into solution in water” value was “would not go into solution”.
